Experimental data from ChEMBL document CHEMBL4321828, “Recent developments on (-)-colchicine derivatives: Synthesis and structure-activity relationship” (Eur J Med Chem, 2020).
Each block holds one molecule with its values, some of them ahead of it.

Columns and labels:
A2780 = assay: Antiproliferative activity against human A2780 cells assessed as reduction in cell viability by MTT assay; type: functional, cell-based
A549 [1] = assay: Antiproliferative activity against human A549 cells assessed as reduction in cell viability by MTT assay; type: functional, cell-based
Bel-7402 = assay: Antiproliferative activity against human Bel7402 cells assessed as reduction in cell viability by MTT assay; type: functional, cell-based
MCF7 [2] = assay: Antiproliferative activity against human MCF7 cells assessed as reduction in cell viability by MTT assay; type: functional, cell-based
KB 3-1 = assay: Antiproliferative activity against human KB3-1 cells assessed as reduction in cell viability after 96 hrs by methylene blue staining based spectrophotometric method; type: functional; details: KB 3-1, 96 h
[3] = Antiproliferative activity against human KB-8-5-11 cells assessed as reduction in cell viability after 96 hrs by methylene blue staining based spectrophotometric method; type: functional
A549 [4] = assay: Antiproliferative activity against human A549 cells assessed as reduction in cell viability incubated for 24 hrs by SRB assay; type: functional, cell-based; details: A549, 24 h
SK-OV-3 = assay: Antiproliferative activity against human SKOV3 cells assessed as reduction in cell viability incubated for 24 hrs by SRB assay; type: functional, cell-based; details: SK-OV-3, 24 h
SK-MEL-2 = assay: Antiproliferative activity against human SK-MEL-2 cells assessed as reduction in cell viability incubated for 24 hrs by SRB assay; type: functional, cell-based; details: SK-MEL-2, 24 h
HCT-15 = assay: Antiproliferative activity against human HCT15 cells assessed as reduction in cell viability incubated for 24 hrs by SRB assay; type: functional, cell-based; details: HCT-15, 24 h
MCF7 [5] = assay: Antiproliferative activity against human MCF7 cells assessed as reduction in cell viability incubated for 24 hrs by SRB assay; type: functional, cell-based; details: MCF7, 24 h
[6] = biological target: ATP-dependent translocase ABCB1 (Homo sapiens, UniProt P08183); assay: Induction of P-gp in human LS180 cells assessed as […] in intracellular accumulation of Rh123 at 100 nM using Rho123 as substrate preincubated for 48 hrs followed by addition of Rh123 and measured after 90 mins by fluorescence based assay relative to control; type: cell-based; details: ls180, 48 h preincubation, then 1.5 h with Rh123, 0.1 µM
Sequence of ATP-dependent translocase ABCB1 (P08183 whole entry): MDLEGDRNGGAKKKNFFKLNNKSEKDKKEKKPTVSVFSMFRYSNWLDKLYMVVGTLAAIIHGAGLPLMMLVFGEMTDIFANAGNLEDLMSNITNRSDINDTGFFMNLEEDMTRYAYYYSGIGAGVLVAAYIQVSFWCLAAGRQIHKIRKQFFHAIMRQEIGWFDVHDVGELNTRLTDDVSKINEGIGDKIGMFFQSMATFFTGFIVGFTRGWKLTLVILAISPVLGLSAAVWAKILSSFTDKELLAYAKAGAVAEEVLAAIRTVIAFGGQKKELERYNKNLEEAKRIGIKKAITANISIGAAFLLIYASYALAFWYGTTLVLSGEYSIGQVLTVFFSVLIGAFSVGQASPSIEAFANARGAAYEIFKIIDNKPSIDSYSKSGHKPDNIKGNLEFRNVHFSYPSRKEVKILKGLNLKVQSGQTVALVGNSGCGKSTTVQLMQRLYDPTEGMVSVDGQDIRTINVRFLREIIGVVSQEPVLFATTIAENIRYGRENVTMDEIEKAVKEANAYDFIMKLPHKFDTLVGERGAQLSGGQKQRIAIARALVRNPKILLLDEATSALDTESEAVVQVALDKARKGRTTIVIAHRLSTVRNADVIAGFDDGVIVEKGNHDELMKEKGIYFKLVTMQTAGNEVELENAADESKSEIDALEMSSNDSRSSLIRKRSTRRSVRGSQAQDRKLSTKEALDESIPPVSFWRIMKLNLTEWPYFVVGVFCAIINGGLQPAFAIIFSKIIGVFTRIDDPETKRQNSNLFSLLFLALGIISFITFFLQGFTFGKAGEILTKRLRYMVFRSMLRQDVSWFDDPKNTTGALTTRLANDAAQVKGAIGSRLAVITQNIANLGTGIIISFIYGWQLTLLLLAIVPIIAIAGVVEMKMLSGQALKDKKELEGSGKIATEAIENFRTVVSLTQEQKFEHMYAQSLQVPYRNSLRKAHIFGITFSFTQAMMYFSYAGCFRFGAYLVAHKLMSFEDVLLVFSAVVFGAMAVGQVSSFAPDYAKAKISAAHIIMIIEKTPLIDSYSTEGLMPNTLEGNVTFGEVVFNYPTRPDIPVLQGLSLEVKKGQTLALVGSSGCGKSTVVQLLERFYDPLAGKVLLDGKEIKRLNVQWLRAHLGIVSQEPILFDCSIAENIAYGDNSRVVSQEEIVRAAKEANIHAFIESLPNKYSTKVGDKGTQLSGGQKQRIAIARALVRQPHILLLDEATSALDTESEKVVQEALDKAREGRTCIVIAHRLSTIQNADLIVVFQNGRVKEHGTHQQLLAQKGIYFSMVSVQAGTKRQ

HCT-116 = assay: Antiproliferative activity against human HCT116 cells assessed as reduction in cell viability incubated for 48 hrs by MTT assay; type: functional, cell-based; details: HCT-116, 48 h
COLO 205 = assay: Antiproliferative activity against human COLO205 cells assessed as reduction in cell viability incubated for 48 hrs by MTT assay; type: functional, cell-based; details: COLO 205, 48 h
DLD-1 = assay: Antiproliferative activity against human DLD1 cells assessed as reduction in cell viability; type: functional, cell-based
LoVo = assay: Antiproliferative activity against human LoVo cells assessed as reduction in cell viability; type: functional, cell-based
MCF7 [7] = assay: Antiproliferative activity against human MCF7 cells assessed as reduction in cell viability; type: functional, cell-based
MDA-MB-231 = assay: Antiproliferative activity against human MDA-MB-231 cells assessed as reduction in cell viability; type: functional, cell-based

- IC50 (A2780): 109 nM
- IC50 (A549 [1]): 205 nM
- IC50 (Bel-7402): 86 nM
- IC50 (MCF7 [2]): 95 nM
SMILES: CNc1ccc2c(cc1=O)[C@@H](NC(=O)CCC(=O)OCCCCCCO[N+](=O)[O-])CCc1cc(OC)c(OC)c(OC)c1-2

- IC50 (KB 3-1): > 1000 nM
SMILES: COc1c(COC(C)=O)c2c(c(OC)c1OC)-c1ccc(OC)c(=O)cc1[C@@H](NC(C)=O)CC2
- IC50 [3]: > 1000 nM

- IC50 (A549 [4]): 5.8 nM
- IC50 (SK-OV-3): 24.8 nM
- IC50 (SK-MEL-2): 16.6 nM
- IC50 (HCT-15): 10.8 nM
- IC50 (MCF7 [5]): 5.6 nM
SMILES: COc1cc(/C=C/C(=O)N[C@H]2CCc3cc(OC)c(OC)c(OC)c3-c3ccc(SC)c(=O)cc32)ccc1O

- Activity [6]: 95.49%
- IC50 (HCT-116): > 10000 nM
- IC50 (COLO 205): 8000 nM
SMILES: CCOC(=O)C1CCN(c2ccc3c(cc2=O)[C@@H](NC(C)=O)CCc2cc(OC)c(OC)c(OC)c2-3)CC1

- IC50 (DLD-1): 51.2 nM
- IC50 (LoVo): 19.5 nM
- IC50 (MCF7 [7]): 56.1 nM
- IC50 (MDA-MB-231): 148 nM
SMILES: CCSc1ccc2c(cc1=O)[C@@H](NC(C)=O)CCc1cc(OC)c(OC)c(OC)c1-2

- Activity [6]: 107.12%
- IC50 (HCT-116): 300 nM
- IC50 (COLO 205): 240 nM
SMILES: COc1cc2c(c(OC)c1OC)-c1ccc(N3CCCC3)c(=O)cc1[C@@H](NC(C)=O)CC2

- IC50 (A549 [4]): 14.7 nM
- IC50 (SK-OV-3): 34.2 nM
- IC50 (SK-MEL-2): 11.7 nM
- IC50 (HCT-15): 16.4 nM
- IC50 (DLD-1): 511 nM
- IC50 (LoVo): 520 nM
- IC50 (MDA-MB-231): 936 nM
SMILES: COc1cccc2c1C(=O)c1c(O)c3c(c(O)c1C2=O)C[C@@](O)(C(=O)CO)C[C@@H]3O[C@H]1C[C@H](N)[C@H](O)[C@H](C)O1 [DOXORUBICIN]

- Activity [6]: 90.05%
- IC50 (HCT-116): 700 nM
- IC50 (COLO 205): 500 nM
SMILES: COc1cc2c(c(OC)c1OC)-c1ccc(Nc3ccc(F)c(Cl)c3)c(=O)cc1[C@@H](NC(C)=O)CC2

- IC50 (A2780): 99 nM
- IC50 (A549 [1]): 88 nM
- IC50 (Bel-7402): 85 nM
- IC50 (MCF7 [2]): 135 nM
SMILES: CNc1ccc2c(cc1=O)[C@@H](NC(=O)CCC(=O)OCCCO[N+](=O)[O-])CCc1cc(OC)c(OC)c(OC)c1-2

SMILES: COc1cc2c(c(OC)c1OC)-c1ccc(OC)c(=O)cc1[C@@H](NC(C)=O)CC2 [COLCHICINE]
- Activity [6]: 62.91%
- IC50 (HCT-116): 50 nM
- IC50 (A549 [4]): 21 nM
- IC50 (SK-OV-3): 18 nM
- IC50 (SK-MEL-2): 6 nM
- IC50 (HCT-15): 9 nM
- IC50 (MCF7 [5]): > 300 nM
- IC50 (MDA-MB-231): 25.3 nM

SMILES: COc1cc2c(c(OC)c1OC)-c1ccc(Nc3ccc(Cl)c(C(F)(F)F)c3)c(=O)cc1[C@@H](NC(C)=O)CC2
- Activity [6]: 90.29%
- IC50 (HCT-116): 40 nM
- IC50 (COLO 205): 30 nM

- IC50 (A549 [4]): 1680 nM
- IC50 (SK-OV-3): 2860 nM
- IC50 (SK-MEL-2): 2840 nM
- IC50 (HCT-15): 4840 nM
- IC50 (MCF7 [5]): 3220 nM
SMILES: COc1cc2c(c(OC)c1OC)-c1ccc(SC)c(=O)cc1[C@@H](NC(=O)CCC1=C(C)c3cc4[nH]c(cc5nc(cc6[nH]c(cc1n3)c(CCC(=O)N[C@H]1CCc3cc(OC)c(OC)c(OC)c3-c3ccc(SC)c(=O)cc31)c6C)C(C(C)O)=C5C)c(C(C)O)c4C)CC2 (some centres undefined)

- IC50 (KB 3-1): 260 nM
SMILES: COc1c(CO)c2c(c(OC)c1OC)-c1ccc(OC)c(=O)cc1[C@@H](NC(C)=O)CC2
- IC50 [3]: > 1000 nM

- Activity [6]: 119.01%
- IC50 (HCT-116): 3000 nM
- IC50 (COLO 205): 1800 nM
SMILES: COc1cc2c(c(OC)c1OC)-c1ccc(N3CCCCC3)c(=O)cc1[C@@H](NC(C)=O)CC2

- IC50 (A2780): 104 nM
- IC50 (A549 [1]): 106 nM
- IC50 (Bel-7402): 202 nM
- IC50 (MCF7 [2]): 103 nM
SMILES: CNc1ccc2c(cc1=O)[C@@H](NC(=O)CCC(=O)OCCO[N+](=O)[O-])CCc1cc(OC)c(OC)c(OC)c1-2

- IC50 (A2780): 96 nM
- IC50 (A549 [1]): 86 nM
- IC50 (Bel-7402): 85 nM
- IC50 (MCF7 [2]): 100 nM
SMILES: CNc1ccc2c(cc1=O)[C@@H](NC(=O)CCC(=O)OCCCCCO[N+](=O)[O-])CCc1cc(OC)c(OC)c(OC)c1-2

- Activity [6]: 107.41%
- IC50 (HCT-116): 150 nM
- IC50 (COLO 205): 120 nM
SMILES: COc1cc2c(c(OC)c1OC)-c1ccc(=N)c(O)cc1[C@@H](NC(C)=O)CC2

SMILES: COc1cc2c(c(OC)c1OC)-c1ccc(N3CCC[C@@H]3CO)c(=O)cc1[C@@H](NC(C)=O)CC2
- Activity [6]: 86.53%
- IC50 (HCT-116): 10000 nM
- IC50 (COLO 205): 8000 nM

- IC50 (DLD-1): 317 nM
- IC50 (LoVo): 438 nM
- IC50 (MCF7 [7]): 874 nM
- IC50 (MDA-MB-231): 1770 nM
SMILES: CCCCSc1ccc2c(cc1=O)[C@@H](NC(C)=O)CCc1cc(OC)c(OC)c(OC)c1-2
